Patent US20240398767A1, “INHIBITORS OF THE MTDH-SND1 PROTEIN COMPLEX FOR CANCER THERAPY” (The Trustees of Princeton University, priority 2021, published 2024)

Legend:
[1] = tested on: C3;UBC-CreERT+/-;Mtdhfl/fl tumor cells; assay: Tumorsphere assay, C3;UBC-CreERT+/-;Mtdhfl/fl tumor cells; assay type: cell-based, mouse; settings: with or without 4-OHT pre-treatment
Description: For FIGS. 11B-11E, 50 k per well of cells were seeded and treated with indicated compounds the next day. 5 days after treatment, sphere number and size were assessed and normalized to vehicle control group. Data represent mean±SEM. n=3 independent experiments. Significance determined by one-way ANOVA analysis with Dunnett's test for multiple comparisons.
FIG. 11B, C3; UBC-Cre^ERT+/−;Mtdh^fl/fl tumor cells (FIGS. 11D, 11E) without 5 days of 0.02 μg/ml 4-OHT pre-treatment were subjected to the tumorsphere assay.
FIG. 11C, C3; UBC-Cre^ERT+/−;Mtdh^fl/fl tumor cells with 5 days of 0.02 μg/ml 4-OHT pre-treatment were subjected to the tumorsphere assay.

MTDH-SND1 interaction = target: T1, MTDH-SND1 interaction (Homo sapiens, UniProt Q7KZF4); assay: Co-immunoprecipitation (Co-IP) in SCP28 lysates with anti-MTDH antibody, Western blot for SND1; assay type: binding; settings: 500 μM, SCP28 lysate
T1 construct: endogenous in cells; host or cells: SCP28 cells (lysate)
T1 sequence (Q7KZF4 2-910 limits assumed): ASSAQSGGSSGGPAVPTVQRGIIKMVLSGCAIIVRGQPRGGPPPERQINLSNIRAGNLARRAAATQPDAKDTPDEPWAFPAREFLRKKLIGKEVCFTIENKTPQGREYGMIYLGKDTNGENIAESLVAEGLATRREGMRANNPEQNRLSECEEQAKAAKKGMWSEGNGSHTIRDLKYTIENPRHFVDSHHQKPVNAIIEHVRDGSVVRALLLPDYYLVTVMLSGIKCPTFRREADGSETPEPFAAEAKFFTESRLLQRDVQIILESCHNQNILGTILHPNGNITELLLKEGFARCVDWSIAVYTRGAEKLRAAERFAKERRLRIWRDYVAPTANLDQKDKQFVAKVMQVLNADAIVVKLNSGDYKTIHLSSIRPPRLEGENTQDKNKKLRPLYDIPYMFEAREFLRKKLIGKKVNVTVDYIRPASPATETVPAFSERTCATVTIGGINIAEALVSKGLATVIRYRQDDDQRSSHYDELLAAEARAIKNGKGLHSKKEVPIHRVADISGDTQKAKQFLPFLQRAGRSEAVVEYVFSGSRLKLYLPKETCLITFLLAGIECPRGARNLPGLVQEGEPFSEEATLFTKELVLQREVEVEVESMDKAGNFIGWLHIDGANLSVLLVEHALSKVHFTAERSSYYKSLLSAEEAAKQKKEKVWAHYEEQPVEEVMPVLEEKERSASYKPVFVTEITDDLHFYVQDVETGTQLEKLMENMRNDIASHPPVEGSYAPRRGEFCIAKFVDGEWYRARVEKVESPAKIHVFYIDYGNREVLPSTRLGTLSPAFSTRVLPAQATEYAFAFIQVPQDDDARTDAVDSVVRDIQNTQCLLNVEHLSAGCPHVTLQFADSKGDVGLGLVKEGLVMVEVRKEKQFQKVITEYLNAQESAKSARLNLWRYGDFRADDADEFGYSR
Description: FIG. 3F, SCP28 cells grown confluent in each 10-cm dish were lysed with 1 ml IP lysis buffer. 500 μM of the compounds were added into each 1 ml of the samples and IP lysis buffer with 2 μg of anti-MTDH antibody. Western blot was then performed to detect SND1 that binds to MTDH.
FIG. 10E, Schematic diagram of Co-IP based confirmation of MTDH-SND1 inhibitory compounds (left). SCP28 cells were lysed for IP assay.2 μg of MTDH antibody together with 500 μM of MTDH wild type (Pep-WT) or mutant (Pep-MT) peptides were added into each 1 ml of samples. Red star indicates wild type MTDH peptide competing off SND1 that binds to MTDH.
Co-immunoprecipitation assay (Co-IP), which is a commonly used standard test to determine protein-protein interaction, was next employed to validate the candidates. Lysates of breast cancer cell line SCP28, a single cell-derived subline from the MDA-MB-231 TNBC cell line^25, was immunoprecipitated with anti-MTDH antibody alone or together with inhibitors (FIG. 3F and FIG. 10E). The samples were then incubated with Protein-A/G beads to pull down MTDH, followed by Western blot analysis to detect SND1. […] Using multiple screening and validation platforms, two classes of compounds, C26s and C32s, were obtained that inhibit MTDH-SND1 interaction.
Immunoprecipitation (IP) and western blotting (WB) analysis. For IP experiment, samples were prepared as previously described^32. 100 μl of the supernatant was transferred to a new tube as input, and the rest was incubated with 2 μg of IgG, anti-Myc (Santa Cruz, SC-40), or anti-MTDH (ThermoFisher, 40-6500) (as indicated in each experiment) overnight at 4° C. (small chemical compounds may be added at this step as indicated in each experiment). The rest standard IP procedures were performed as previously noted^32. […]

[2] = target: T2, linked-luc in SCP28 cells (Photinus pyralis, UniProt P08659, INS416[…]); assay: Linked-luciferase reporter in living SCP28 cells; assay type: cell-based; settings: multiple doses, 30 min after treatment
T2 construct: NLuc and CLuc were linked with 3 repeats of GGGS, flanked by the same restriction sites, and inserted into the same vectors; expressed in transfected cells; host or cells: SCP28 cells stably transduced with pRVPTO retroviral vector
Description: FIG. 4A, SCP28 cells that stably express split- or linked-luciferase components were treated with multiple doses of C26-A2 or C26-A6. 30 minutes (min) after treatment, culture media was removed and the luciferase activity in the cells was measured. Data represent mean±SEM. n=3 independent experiments.
C26s inhibit breast cancer progression and metastasis. C26-A2 and A6 were picked for the functional test. To this end, it was tested whether C26-A2 and A6 could inhibit breast cancer progression. […] Next, SCP28 breast cancer cells that were engineered to express split- or linked-luciferase reporter were treated with C26-A2 or A6.

T2 sequence (P08659 with tags, fused parts or gaps INS416[withheld]): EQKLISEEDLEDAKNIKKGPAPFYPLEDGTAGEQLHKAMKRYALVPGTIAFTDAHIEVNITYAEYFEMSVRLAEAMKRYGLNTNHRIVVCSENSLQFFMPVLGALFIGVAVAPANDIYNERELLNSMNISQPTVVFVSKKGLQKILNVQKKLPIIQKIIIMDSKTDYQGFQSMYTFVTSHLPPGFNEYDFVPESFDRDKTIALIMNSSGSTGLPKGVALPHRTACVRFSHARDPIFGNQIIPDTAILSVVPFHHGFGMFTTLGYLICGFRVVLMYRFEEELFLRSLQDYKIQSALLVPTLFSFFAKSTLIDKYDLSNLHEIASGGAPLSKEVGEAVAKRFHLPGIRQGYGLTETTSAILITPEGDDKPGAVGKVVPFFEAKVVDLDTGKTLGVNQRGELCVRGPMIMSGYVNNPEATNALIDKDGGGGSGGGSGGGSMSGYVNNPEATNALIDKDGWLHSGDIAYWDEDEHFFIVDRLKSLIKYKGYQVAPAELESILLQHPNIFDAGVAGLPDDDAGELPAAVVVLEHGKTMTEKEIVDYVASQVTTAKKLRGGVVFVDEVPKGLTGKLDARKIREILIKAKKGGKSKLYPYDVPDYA

| SMILES | tumorsphere formation (sphere number and size) [1] | MTDH-SND1 interaction (SND1 that binds to MTDH, Co-IP) (MTDH-SND1 interaction) | linked-luc activity in living cells [2] |
| --- | --- | --- | --- |
| COc1ccc(Cl)cc1S(=O)(=O)Nc1cccn2ncnc12 [Analog C26-A2] | confirmed | strongest inhibitory effects | without significantly affecting linked-luc activity |
| COc1ccc(Cl)cc1S(=O)(=O)Nc1cccn2nc(C)nc12 [Analog C26-A6] | confirmed | strongest inhibitory effects | without significantly affecting linked-luc activity |
